Reference: US10478431B2, “Methods for treating a cytomegalovirus infection” (priority 2014, dated 2019)
Counter-ions that a name gives are not always drawn.

Experiments:
[1] = tested on: IE2 negative feedback (MIEP-IE2-IRES-GFP construct, LM2ig); test: IE2 negative feedback reporter: cells harboring LM2ig (MIEP-IE2-IRES-GFP), GFP by flow cytometry; format: cell-based, human CMV (hCMV); details: for increase in the number of GFP-positive cells: Hoechst 33342 0.25 μM, VPA concentrations as in Teng et al. (2012), cells harboring LM2ig, FIG. 6; for quiescent MIEP-driven expression in a reporter cell line: 20 μM Hoechst 33258, FACS, FIG. 4 upper panel; for production of IE2, as measured by GFP expression (GFP mean fluorescence intensity; GFP-MFI): ARPE-19 cells stably transduced with LM2ig, FIG. 1, FIG. 2
Procedure: (§1) MRCS fibroblasts and life-extended human foreskin fibroblasts (HFFs) (Bresnahan and Shenk, 2000) were maintained in Dulbecco's Modified Eagle's Medium (DMEM) supplemented with 10% fetal bovine serum (FBS) and 50 U/ml penicillin-streptomycin at 37° C. and 5% CO2 in a humidified incubator. ARPE-19 cells were maintained in a 1:1 mixture of DMEM/F-12 (Mediatech Inc.) with 10% FBS (HyClone) and 50 U/ml Penicillin-Streptomycin (Mediatech Inc.). Cells were treated with a final concentration of 1 mM valproic acid (VPA) (Calbiochem™), resuspended in dimethylsulfoxide, for approximately 24 hours before imaging. Cells were treated with a final concentration of 400 nM TSA (Sigma-Aldrich) resuspended in dimethylsulfoxide, for 20-24 hours, a final concentration of 10 ng/mL TNF-α (Sigma-Aldrich) resuspended in phosphate-buffered saline (PBS), or a final concentration of 1 mM VPA (Calbiochem) for approximately 24 hours before imaging.
(§2) Standard lentiviral cloning was used to create minimal major immediate early (MIE) circuits (Dull et al., 1998). The minimal MIEP-IE2-GFP and MIEP-GFP circuits are driven by a full-length ˜2.5 kb MIE promoter-enhancer (MIEP) that spans the sequence from the MIEP modulator at the 5′ edge to the junction of immediate early (IE) exons 1 and 2. The MIEP was polymerase chain reaction (PCR)-cloned from AD169 into pLEIGW in place of the EF1a promoter. This full-length MIEP drives an IE2-IRES-GFP or mCherry-IRES-GFP cassette. IE2 was cloned from pRSV-IE86 (a gift from Jay Nelson). ARPE-19 cells were infected and fluorescence-activated cell sorter (FACS) sorted for green fluorescent protein (GFP) fluorescence to create stably expressing cell lines. Cells were treated with Trichostatin-A (TSA) for 17 hours, and GFP expression was quantified by flow cytometry. Live cells were gated by forward-versus-side scattering on a FacsCalibur™ cytometer (BD Biosciences) and mean fluorescence intensity recorded. At least 20,000 live cells were recorded for each experiment and data was analyzed in FlowJo™ (Treestar Inc.).
See WO 2014/127148 for descriptions of MIEP-IE2-reporter constructs. For example, LM2ig construct is depicted in FIG. 7 of WO 2014/127148.

[2] = tested on: IE2 negative feedback (LM2ig "low" cells); test: LM2ig "low" drug screen (4 day induction, high throughput flow cytometry); format: cell-based, human CMV (hCMV); details: induction period of 4 days, FIG. 9
Procedure: LM2ig “low” cells (˜0% GFP positive before induction) were treated with agents in duplicate for an induction period of 4 days. During this induction period, the cell culture medium was not changed; images were taken every day for 4 days. On the final day, high throughput flow cytometry was carried out on FACS IntelliCyt. Agents tested were: Hoechst 33258, Hoechst 33342, VPA, TSA, TNF-α, hexamethylene bisacetamide (HMBA), phorbol myristate acetate (PMA), neotroposin, distamycin, DAPI, gemcitabine, prednisolone, suberanilohydroxamic acid (SAHA), (2E)-N-hydroxy-3-[4-({[2-(2-methyl-1H-indol-3-yl)ethyl]amino}methyl)phenyl]acrylamide (panobinostat), thapsigargin, JQ1, prostratin, dimizane acetate, pentamidine, or bendamustine.

[3] = tested on: ARPE-19 cells stably transduced with LM2ig; test: Viability of ARPE-19 cells stably transduced with LM2ig; format: cell-based; details: FIG. 1, FIG. 2
Procedure: as §1, §2

[4] = tested on: latent CMV in N-Tera2 cells; test: N-Tera2 latency assay (reactivation of latent CMV); format: cell-based, human CMV (hCMV); details: FIG. 4 lower panel
Procedure: Reactivation of latent CMV in N-Tera2 cells was conducted as previously described in (Meier, 2001).

| Structure (SMILES) | percent GFP-positive cells ([1]; 0.25 μM Hoechst 33342, 24 hours, cells with LM2ig construct, FIG. 5) | breaking of the IE2 negative feedback circuit ([1]; 24-28 hour exposure) | reactivation of the LM2ig minimal circuit ([1]; Hoechst 33258: after 24 hours) | increase in the number of GFP-positive cells [1] [fold] | breaking of the minimal LM2ig circuit ([1]; after 24 hours, alone) | breaking of the circuit and reactivation of the promoter from an off (silenced) state ([1]; long-term (e.g., 8-10 days) exposure) | breaking of the IE2 negative feedback (geometric mean of GFP) [2] | cell viability / cytotoxicity [3] | quiescent MIEP-driven expression in a reporter cell line ([1]; ARPE-19 cells harboring LM2ig) | production of IE2, as measured by GFP expression (GFP mean fluorescence intensity; GFP-MFI) [1] | reactivation of latent CMV [4] | number of GFP-positive cells ([1]; ARPE-19 cells harboring LM2ig, Hoechst 33258 with or without VPA, FIG. 7) | mean fluorescence intensity (MFI) ([1]; ARPE-19 cells harboring LM2ig, Hoechst 33258 with or without VPA, FIG. 8) |
| --- | --- | --- | --- | --- | --- | --- | --- | --- | --- | --- | --- | --- | --- |
| CCOc1ccc(-c2nc3ccc(-c4nc5ccc(N6CCN(C)CC6)cc5[nH]4)cc3[nH]2)cc1 [Hoechst 33342, 2′-[4-ethoxyphenyl]-5-[4-methyl-1-piperazinyl]-2,5′-bi-1H-benzimidazole trihydrochloride trihydrate] | increased | breaks the IE2 negative feedback circuit | strongly reactivates | 3.49 | does not break | breaks the circuit and reactivates the promoter | specifically break the IE2 negative feedback | – | – | – | – | – | – |
| CC(/C=C/C(=O)NO)=C\[C@@H](C)C(=O)c1ccc(N(C)C)cc1 [TSA, (R,2E,4E)-7-(4-(dimethylamino)phenyl)-N-hydroxy-4,6-dimethyl-7-oxohepta-2,4-dienamide, reference compound] | – | – | – | – | – | – | – | not cytotoxic | not | increased IE2 expression | not | – | – |
| CCCC(CCC)C(=O)O [VPA, valproic acid, reference compound] | – | – | – | 1.69 | – | – | – | not cytotoxic | not | increased IE2 expression | not | induced an increase | did not substantially increase MFI |
